Measured values from patent US20250388591A1 (CSPC ZHONGQI PHARMACEUTICAL TECHNOLOGY (SHIJIAZHUANG) CO., …, priority 2022, published 2025).
pIC50: −log10 of the molar value.

What was measured:
MAT2A = molecular target: T1, MAT2A (Homo sapiens, UniProt P31153); assay: MAT2A enzymatic assay (MAT2A Inhibitor Enzymatic Screening Kit); type: biochemical; settings: MAT2A enzyme, colorimetric detection at 630 nm; read-out: Inhibitory activity against Enzyme (IC50: nM)
T1 construct: purchased BPS Bioscience
T1 sequence (P31153 whole entry): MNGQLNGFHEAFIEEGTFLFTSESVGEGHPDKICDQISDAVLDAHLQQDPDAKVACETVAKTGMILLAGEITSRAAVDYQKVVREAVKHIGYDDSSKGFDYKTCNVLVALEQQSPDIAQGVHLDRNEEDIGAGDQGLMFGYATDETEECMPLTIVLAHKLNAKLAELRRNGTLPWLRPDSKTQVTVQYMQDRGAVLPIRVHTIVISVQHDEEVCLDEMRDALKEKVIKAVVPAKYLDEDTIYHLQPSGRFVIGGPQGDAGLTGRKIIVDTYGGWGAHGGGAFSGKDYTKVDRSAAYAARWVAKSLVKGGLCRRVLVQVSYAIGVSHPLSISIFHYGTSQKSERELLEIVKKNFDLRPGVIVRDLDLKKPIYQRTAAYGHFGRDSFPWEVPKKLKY
Protocol: The inhibitory effect of the test compounds on the enzymatic activity of MAT2A was determined using MAT2A Inhibitor Enzymatic Screening Kit (BPS Bioscience).
1) Test compounds were dissolved in DMSO and mixed well until the test compounds were completely dissolved. All compounds were diluted with DMSO to a starting concentration of 2 mM, and diluted at a 3-fold ratio to a total of 10 concentration gradients. Duplicate wells were set. The compounds were added to the reaction system at a ratio of 1:100 (20 μM of the maximum final concentration) during detection. 100× positive control (1 mM AGI-24512) and 100× negative control (100% DMSO) were prepared.
2) 200 nL of each of the diluted compounds were transferred to each well of the reaction plate (Corning 3702) using an Echo 550 pipetting system, and the reaction plate was sealed with a sealing film, and centrifuged at 1000 g for 1 minute. The final concentration of DMSO was 1%.
3) Preparation of 1×MAT2A enzyme reaction buffer: 1× volume of 5×MAT2A enzyme reaction buffer was mixed well with 4× volumes of water.
4) 2×MAT2A enzyme solution was prepared with 1×MAT2A enzyme reaction buffer.
5) A 10 μL of 2×MAT2A enzyme solution was added to each well of the 384-reaction plate (Corning 3702), and the plate was sealed with a sealing film.
6) The plate was centrifuged at 1000 g for 60 seconds and incubated at room temperature for 30 minutes.
7) A mixture of 2×L-Methionine and ATP was prepared with 1×MAT2A enzyme reaction buffer.
8) 10 μL of the mixture of 2×L-Methionine and ATP was added to each well of the 384-reaction plate (Corning 3702), and the plate was sealed with a sealing film. The total reaction system was 20 μL.
9) The plate was centrifuged at 1000 g for 60 seconds and incubated at room temperature for 60 minutes.
10) The assay buffer Colorimetric Detection Rebgent was prepared.
11) 20 μL of the assay buffer was added to each well. The plate was centrifuged at 1000 g for 30 seconds and reacted at room temperature for 15 minutes.
12) Fluorescence signal at 630 nm was detected by a multifunctional microplate reader (PerkinElmer, Nivo).

HCT116-MTAP−/− cells = assay: Cell proliferation inhibition, HCT116 MTAP-/- (Cell Titer Glo, 5 days); type: cell-based; settings: Homo sapiens, HCT-116, 120 h, 5 days treatment, read-out: HCT116 MTAP−/− cell proliferation inhibitory activity IC50:
Protocol: (§1) The specific operation procedures were as follows. Tumor cells were treated with test compounds for 5 days, and the effect of the test compounds on the proliferation of tumor cells was evaluated. HCT116-MTAP^−/− and wild-type control HCT116-WT (colorectal cancer cells) cells were seeded in a 384-well plate at a density of 600 cells/well, and at the same time, different concentrations of the test compounds (starting from 20 μM, 10 concentration gradients) were added. The cells were incubated at 37° C., 5% CO2, and saturated humidity for 5 days.
(§2) Cell proliferation was detected using an ATP-based Cell Proliferation Assay Kit (Cell Titer Glo, Promega Corporation). Cells were equilibrated at room temperature for 30 minutes and then treated with Cell Titer Glo reagent. The plate was then covered with aluminum foil and shaken for 15 minutes to allow mixing well and lysis. Chemiluminescence detection was performed using a multifunctional microplate reader (Envision 2105, PerkinElmer). A blank well (blank, cell-free) and a DMSO control well were set.
(§3) The inhibition rate (IR) of the test compounds was calculated using the following formula: […]
(§4) GraphPad Prism was used for graphing, data analysis and IC50 calculations.

HCT116-WT cells = assay: Cell proliferation inhibition, HCT116 wild-type (Cell Titer Glo, 5 days); type: cell-based; settings: Homo sapiens, HCT-116, 120 h, 5 days treatment, maximum inhibition rate <50% expressed as IC50 > maximum initial concentration, read-out: HCT116 MTAP+/+ cell proliferation inhibitory activity IC50:
Protocol: as §1, §2, §3, §4

Row | Compound | IC50 (MAT2A) [nM] | pIC50 (HCT116-MTAP−/− cells) | pIC50 (HCT116-WT cells)
1 | Cc1ncccc1-n1c(=O)nc2c3c(cc(C(F)(F)F)nc31)CCN2C [Compound C1, 4-methyl-1-(2-methylpyridin-3-yl)-8-(trifluoromethyl)-5,6-dihydro-1H-pyrimidino[4,5,6-ij][2,7]naphthyridin-2(4H)-one] | ≤ 50 | – | –
2 | Cc1ncccc1-n1c(=O)nc2c3c(cc(Cl)cc31)CN2c1ccc(Cl)cc1 [Compound A39, 7-chloro-4-(4-chlorophenyl)-1-(2-methylpyridin-3-yl)-4,5-dihydropyrrolo[2,3,4-de]quinazolin-2(1H)-one] | ≤ 50 | 6.51 | 5.87
3 | COc1ncccc1-n1c(=O)nc2c3c(cc(Cl)cc31)CN2C [Compound A40, 7-chloro-1-(2-methoxypyridin-3-yl)-4-methyl-4,5-dihydropyrrolo[2,3,4-de]quinazolin-2(1H)-one] | 50 to 100 | – | –
4 | Cc1ncccc1-n1c(=O)nc2c3c(cc(Cl)cc31)CN2c1ccc2nn(C)cc2c1 [Compound A38, 7-chloro-4-(2-methyl-2H-indazol-5-yl)-1-(2-methylpyridin-3-yl)-4,5-dihydropyrrolo[2,3,4-de]quinazolin-2(1H)-one] | ≤ 50 | 7.70 | < 4.70
5 | CN1Cc2cc(C(F)(F)F)nc3c2c1nc(=O)n3-c1cccnc1Cl [Compound A29] | > 100 | – | –
6 | Cc1ncccc1-n1c(=O)nc2c3c(cc(C(F)(F)F)nc31)CN2C [Compound A19] | > 100 | – | –

Results, then the molecule that gave them:

Row | IC50 (MAT2A) [nM] | pIC50 (HCT116-MTAP−/− cells) | pIC50 (HCT116-WT cells) | Compound
7 | ≤ 50 | 7.35 | < 4.70 | Cc1ncccc1-n1c(=O)nc2c3c(cc(Cl)cc31)CN2C [Compound A2, 7-chloro-4-methyl-1-(2-methylpyridin-3-yl)-4,5-dihydropyrrolo[2,3,4-de]quinazolin-2(1H)-one]
8 | > 100 | – | – | Cc1ncccc1-n1c(=O)nc2c3c(cc(Cl)cc31)OCCN2 [Compound B2, 9-chloro-1-(2-methylpyridin-3-yl)-5,6-dihydro-1H-[1,4]oxazepino[5,6,7-de]quinazolin-2(4H)-one]
9 | ≤ 50 | 6.70 | < 4.70 | Cc1ncccc1-n1c(=O)nc2c3c(cc(Cl)cc31)CN2 [Compound A1, 7-chloro-1-(2-methylpyridin-3-yl)-4,5-dihydropyrrolo[2,3,4-de]quinazolin-2(1H)-one]
10 | ≤ 50 | – | – | Cc1ncccc1-n1c(=O)nc2c3c(cc(Cl)cc31)CN2c1ccccc1 [Compound A3, 7-chloro-4-phenyl-1-(2-methylpyridin-3-yl)-4,5-dihydropyrrolo[2,3,4-de]quinazolin-2(1H)-one]
11 | 50 to 100 | – | – | Cc1ncccc1-n1c(=O)nc2c3c(cc(Cl)cc31)NCC(O)N2C (stereo not drawn) [Compound B3, 9-chloro-5-hydroxy-4-methyl-1-(2-methylpyridin-3-yl)-4,5,6,7-tetrahydro-[1,4]diazepino[5,6,7-de]quinazolin-2(1H)-one]
12 | ≤ 50 | 6.95 | < 4.70 | CN1Cc2cc(Cl)cc3c2c1nc(=O)n3-c1cccnc1Cl [Compound A16, 7-chloro-4-methyl-1-(2-chloropyridin-3-yl)-4,5-dihydropyrrolo[2,3,4-de]quinazolin-2(1H)-one]
13 | > 100 | – | – | Cc1ncccc1-n1c(=O)nc2c3c(cc(Cl)cc31)CCCN2 [Compound B1, 9-chloro-1-(2-methylpyridin-3-yl)-4,5,6,7-tetrahydroazepino[2,3,4-de]quinazolin-2(1H)-one]
14 | ≤ 50 | – | – | CN1Cc2cc(Cl)cc3c2c1nc(=O)n3-c1cccnc1Cl (single isomer, unassigned) [Compound A16-P2, 7-chloro-4-methyl-1-(2-chloropyridin-3-yl)-4,5-dihydropyrrolo[2,3,4-de]quinazolin-2(1H)-one]
